Holding throughout (test): DTP human tumour cell line panel, 48 h
The test system of assay [1] is HCC-2998 colon.
Assay [2] relates to OVCAR-3 ovarian.
Assay [3] deals with SNB-78 CNS.
The subject of assay [4] is SR leukemia.
In assay [5] the test system is DMS 273 small cell lung.
In assay [6] the test system is DU-145 prostate.
For assay [7], the system named is HL-60(TB) leukemia.
Assay [8] relates to MOLT-4 leukemia.
Assay [9] has as its system SNB-75 CNS.
Assay [10] has as its system XF 498 CNS.

Several values for one entry are separate records, joined by “and”; a condition that tells them apart may be missing. Equal values may be shown once.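 Compound exposure: 48 hours, 5 concentrations, 96-well plates. At the GI50, growth is halved. TGI: total growth inhibition.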

`Cc1ccc2nc(NC(=O)C(=O)C(C(=O)c3ccc4ccccc4c3)C3OC(=O)c4ccccc43)sc2c1` (configuration not stated): the concentration for total growth inhibition (TGI) in assay [1] was 23.7 µM; in [2], greater than 100 µM; in [3], 27.7 µM; in assay [4], 62.1 µM.
Take `CC[C@@]1(O)C(=O)OCc2c1cc1n(c2=O)Cc2cc3cc(Cl)ccc3nc2-1`: the GI50 was less than 0.001 µM in assay [5]; 0.00491 µM in assay [6]; 0.0277 µM and 0.0364 µM in assay [1]; 0.00156 µM and 0.0131 µM in assay [7]; 0.00119 µM in assay [8]; 0.0456 µM and 0.137 µM in assay [2]. The GI50 in assay [9] is 0.00253 µM; in assay [3], 0.0711 µM and 0.0581 µM; in assay [4] it was 0.00232 µM and 0.0143 µM. Moreover, the concentration for total growth inhibition (TGI) in [5] was 0.0211 µM and 0.14 µM; in assay [1] it was 0.202 µM and 0.32 µM; in assay [2], 0.274 µM and 0.452 µM; in assay [9], 0.053 µM and 0.0414 µM.
As to `O=C1C=CC2(CCCCCCC2=O)CC1` (configuration not stated), the concentration for total growth inhibition (TGI) in assay [5], in assay [1], in assay [7], in assay [8], in assay [2] and in assay [9] was greater than 100 µM in each case. Moreover, the TGI in assay [3] and in assay [4] was greater than 100 µM in each case.
As to `NC1=NN(c2ccccc2)C(=O)C1C(=O)C(=O)Nc1ccc(Cl)cc1` (configuration not stated), the TGI in [5], in assay [1], in assay [7], in [8], in [2] and in [9] was greater than 100 µM in each case. The TGI in assay [3] and in assay [4] was greater than 100 µM throughout.
Regarding `NC(CCSCC(F)(F)F)C(=O)O` (configuration not stated), the TGI in assay [5], in [1], in assay [7], in [8], in assay [2] and in [9] was greater than 100 µM each time. Moreover, the total growth inhibition concentration (TGI) in assay [3] and in [4] was greater than 100 µM in each case.
`O=C(CCc1nc(=S)[nH][nH]1)Nc1cc(Cl)ccc1Cl`: the total growth inhibition concentration (TGI) in [5], in assay [1], in [7], in assay [8], in assay [2] and in assay [9] was greater than 100 µM each time. Moreover, in [4], the concentration for total growth inhibition (TGI) is greater than 100 µM.
Consider `O=C1OC(CC(=O)c2ccc(F)cc2)C(Cl)=C1Cl` (configuration not stated), for which the concentration for total growth inhibition (TGI) in [1] was 30.1 µM; in assay [7], 62 µM; in [8] it was greater than 100 µM; in assay [2], 38.7 µM; in assay [3] it was greater than 100 µM; in assay [4], 79 µM. This compound came in with a TGI in assay [10] of 46.8 µM.
Regarding `O=C(NCCCCCCCCCCCCNC(=O)c1cnc2ccccc2n1)c1cnc2ccccc2n1`, the TGI in assay [5] is greater than 100 µM; in [1], greater than 100 µM; in assay [7], greater than 100 µM; in assay [8] it was greater than 100 µM; in assay [2], greater than 100 µM; in [9] it was 49.3 µM. The total growth inhibition concentration (TGI) in [3] was greater than 100 µM.
On to `COC(=O)C(=O)C(CC(=O)Nc1cc(Cl)ccc1Cl)C(=O)OC` (configuration not stated), for which the TGI in assay [5], in [1], in [7], in assay [8], in [2] and in assay [9] was greater than 100 µM each time. Also, the TGI in assay [3] and in assay [4] was greater than 100 µM throughout.
Regarding `C#CCN(N=O)C(=O)NC(CCCCNC(=O)OCc1ccccc1)C(=O)OCc1ccccc1` (configuration not stated), the TGI in [5] was greater than 100 µM; in [1], greater than 100 µM; in assay [7], 37.6 µM; in assay [8] it was 41.5 µM; in assay [2], greater than 100 µM; in [9] it was 97.4 µM. The TGI in [3] was greater than 100 µM.
With `NC(Cc1ccccc1)C(=O)OCN1C(=O)C2C3C=CC(C2C1=O)C1C2C(=O)N(COC(=O)C(N)Cc4ccccc4)C(=O)C2C31` (configuration not stated), the GI50 was 55.4 µM in assay [1]; 24.3 µM and 12 µM in assay [8]. The TGI is greater than 100 µM in [1]; 43.5 µM and > 100 µM in assay [7]; 52 µM and 42.9 µM in assay [8]; 87 µM and 67.7 µM in assay [2]; 64.6 µM and 62.3 µM in assay [9]; 50.3 µM in [4]. The same compound displayed a TGI in [10] of 71.7 µM.
As to `O=C1NC(=O)C(C(=O)C(=O)Nc2cc(Cl)ccc2Cl)C(=O)N1`, the concentration for total growth inhibition (TGI) in assay [1], in [7], in [8], in [2], in [9] and in assay [3] was greater than 100 µM in each case.

In general, TGI refers to the concentration at which net growth stops. In general, GI50 refers to the concentration giving 50% growth inhibition.
